Assay results from PubChem BioAssay (NCI).
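Cells were grown in 96-well plates and exposed to each compound for 48 hours at five concentrations; endpoints were interpolated linearly between bracketing concentrations, or set to the highest concentration if not reached. GI50: concentration for 50% inhibition of growth. At the TGI there is no net growth.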

Experiments:
Experiment in all cases: DTP human tumour cell line panel, 48 h
[1] = system: A549 NSCLC
[2] = system: CAKI-1 renal
[3] = system: DU-145 prostate
[4] = system: HCT-15 colon
[5] = system: HOP-62 NSCLC
[6] = system: IGROV1 ovarian
[7] = system: MCF7 breast
[8] = system: OVCAR-3 ovarian
[9] = system: SK-MEL-5 melanoma
[10] = system: TK-10 renal

| Structure (SMILES) | GI50 [1] [µM] | TGI [1] [µM] | GI50 [2] [µM] | TGI [2] [µM] | GI50 [3] [µM] | TGI [3] [µM] | GI50 [4] [µM] | TGI [4] [µM] | GI50 [5] [µM] | TGI [5] [µM] | GI50 [6] [µM] | TGI [6] [µM] | GI50 [7] [µM] | TGI [7] [µM] | GI50 [8] [µM] | TGI [8] [µM] | GI50 [9] [µM] | TGI [9] [µM] | GI50 [10] [µM] | TGI [10] [µM] |
| --- | --- | --- | --- | --- | --- | --- | --- | --- | --- | --- | --- | --- | --- | --- | --- | --- | --- | --- | --- | --- |
| CN1CCN(C(=O)C(C)(C)c2ccc(C(=O)Nc3cn4cc(-c5ccncc5)ccc4n3)cc2)CC1 | 0.214 | > 100 | 0.193 | > 100 | 0.319 | 35.2 | 0.312 | 7.2 | 0.307 | > 53 | 0.22 | 6 | 0.282 | > 100 | 0.126 | 0.431 | 0.188 | 0.382 | 0.484 | > 100 |
| O=C1CCCCCCCCCCC1CN1CCCC1 (stereo not given) |  | > 100 |  | > 100 |  | > 100 |  | > 100 |  | 34.7 |  | > 100 |  | 50.3 |  | > 100 |  | 31.6 |  | > 100 |
| Cn1ncnc1[C@H]1c2n[nH]c(=O)c3cc(F)cc(c23)N[C@@H]1c1ccc(F)cc1 | 6.96 | > 100 | 5.89 | > 100 | 3.59 | > 100 | > 100 | > 100 | 5.81 | > 100 | 74.1 | > 100 | 0.701 | > 100 | > 100 | > 100 | > 100 | > 100 | > 100 | > 100 |
| COc1ccc2c(c1)NC1=C(C(=O)OC1)C2c1cc(OC)c2c(c1)OCO2 (stereo not given) | 0.0229 | > 100 | 0.0502 | > 100 | 0.0218 | 0.066 | 0.0319 | > 100 | 0.0225 | 70.8 | 0.0337 | > 100 | < 0.0158 | > 100 | < 0.0149 | 0.0241 | 0.021 | 0.0523 | 60.7 | > 100 |
| C=C1C(O)C2C(=C(CC)C13CC3)C(=O)C(C)(C)C2OC (stereo not given) | 44.9 | > 100 | 76.5 | > 100 | 57.9 | > 100 | 59 | > 100 | 90.8 | > 100 | 23.8 | > 100 | 42.4 | > 100 | 40.3 | > 100 | 42.6 | > 100 | > 100 | > 100 |
| CCCCOC(=O)N1CCN(/[N+]([O-])=N/Oc2ccc([N+](=O)[O-])cc2[N+](=O)[O-])CC1 | 21.1 | 64.2 | 3.16 | 6.77 | 3.35 | 12 | 3.99 | 21.4 | 6.28 | 23.2 | 2.17 | 6.44 | 3.31 | 8.57 | 1.68 | 4.12 | 4.91 | 19.8 | 10 | 21.8 |
| CN(C)CCN1C(=O)c2c(c3c4ccccc4n4c3c3c2c2ccccc2n3C2CC(O)C(O)C4(C)O2)C1=O (stereo not given) | 0.643 | 7.4 | 1.98 | 12 | 1.12 | 9.42 | 1.59 | 8.72 | 1.24 | 6.73 | 1.41 | 13.1 | 0.58 | 7.44 | 2.27 | 11.1 | 1.58 | 7.14 | 1.32 | 13.5 |
| O=c1cnn(C2OC(CO)C(O)C2O)c(=S)[nH]1 (stereo not given) |  | > 100 |  | > 100 |  | > 100 |  | > 100 |  | > 100 |  | > 100 |  | > 100 |  | > 100 |  | > 100 |  | > 100 |
| CC(C)(C)C(=O)OCC1C(=O)OCC1C(=O)N1Cc2cc3ccccc3nc2C1 (stereo not given) |  | 30.8 |  | 3.87 |  | 30.2 |  | 6.36 |  | 22 |  | 29.1 |  | 14.6 |  | 11.8 |  | 28.5 |  | 6.35 |
| Nc1ncnc2c1N=C(c1ccc3c(c1)OCO3)CC(c1ccc([N+](=O)[O-])cc1)N2 (stereo not given) | 69.7 | > 100 | 25.5 | > 100 | 46.3 | > 100 | 9.55 | > 100 | 67.6 | > 100 | 0.0684 | 3.24 | 31.5 | > 100 | 88.3 | > 100 | 82.9 | > 100 | 80.9 | > 100 |
